Source: US8921417B2, “Method of treating dyslipidemia using naturally occurring diterpene” (Council of Scientific & Industrial Research, priority 2008, dated 2014)
Marks after values point to notes of the source that are not given here.

Tested on: high fat diet (HFD)-fed dyslipidemic hamsters
Test: Antidyslipidemic activity in high fat diet (HFD)-fed dyslipidemic hamster model
Type: in vivo, golden Syrian hamsters
Conditions: for GLY, percent change with respect to HFD-fed hamster group / HDL/TC, percent change with respect to HFD-fed hamster group / TC, percent change with respect to HFD-fed hamster group / TG, percent change with respect to HFD-fed hamster group / LDL, percent change with respect to HFD-fed hamster group: plasma; for antidyslipidemic activity (in words): different doses (5, 10, 25, 50, 100 mg/kg) of body weight
Description: Male golden Syrian hamsters weighing 110-120 g were divided into hyperlipidemic and hyperlipidemic plus drug-treated groups. Each group consisted of eight animals. Hyperlipidemia was produced by feeding with a high fat diet (HFD). Hyperlipidemic hamsters had free access to the HFD and water ad lib during the entire period of the experiment. The test samples were given orally at the dose mentioned using water as a drug vehicle from day 4 to day 10 (7 days) in the HFD fed hamsters.
Normal hamsters fed with the HFD and given the drug vehicle (water) only served as control animals. Body weight and diet intake of each animal group was recorded daily to check the effect of the drug on food intake and body weight of the animals. At the end of the experiment, i.e., on the 10th day, the blood of the non-fasted animals was withdrawn in EDTA coated tubes and the tubes were cooled to 4° C. for 15 min. The cold plasma was separated and biological analysis of the plasma was performed on the same day using commercially available enzymatic diagnostic kits for triglycerides (TG), total cholesterol (TC), high density lipoprotein (HDL), glycerol (GLY) and low density lipoprotein (LDL) using a Synchron CX-5 Clinical System, Beckmann Coulter Instrument. The data was analyzed for its significance on Prism Software.

[1] = dose 25 mg/kg body weight, oral, 7 days
[2] = dose 50 mg/kg body weight, oral, 7 days
[3] = dose 100 mg/kg body weight, oral, 7 days

SMILES: CC(C)c1c(C(=O)Nc2ccccc2)c(-c2ccccc2)c(-c2ccc(F)cc2)n1CC[C@@H](O)C[C@@H](O)CC(=O)O [Atorvastatin, reference compound]
- increase of HDL/TC (dose 10 mg/kg): 35%
- lowering of Gly (dose 10 mg/kg): 52%
- lowering of TC (dose 10 mg/kg): 14%
- lowering of TG (dose 10 mg/kg): 63%
- GLY, percent change with respect to HFD-fed hamster group (dose 10 mg/kg p.o., 7 days): −52* %
- HDL/TC, percent change with respect to HFD-fed hamster group (dose 10 mg/kg p.o., 7 days): +35%
- TC, percent change with respect to HFD-fed hamster group (dose 10 mg/kg p.o., 7 days): −14%
- TG, percent change with respect to HFD-fed hamster group (dose 10 mg/kg p.o., 7 days): −63*** %

SMILES: CC1=CCC[C@@H]2[C@@](C)(CCC3=CC(=O)O[C@@H]3O)[C@H](C)CC[C@@]12C [Compound 1, 16α-hydroxycleroda-3,13(14)Z-dien-15,16-olide]
- antidyslipidemic activity (in words) (listed as compound having formula (1)): significant antidyslipidemic activity
- antidyslipidemic activity (in words) (listed as pure isolated compound from the hexane extract): significantly decreased serum TG, total cholesterol (TC), and glycerol (Gly), accompanied by increase in HDL-C/TC ratio
- GLY, percent change with respect to HFD-fed hamster group (dose 5 mg/kg p.o., 7 days): −10%
- HDL/TC, percent change with respect to HFD-fed hamster group (dose 5 mg/kg p.o., 7 days): +12%
- TC, percent change with respect to HFD-fed hamster group (dose 5 mg/kg p.o., 7 days): −27* %
- TG, percent change with respect to HFD-fed hamster group (dose 5 mg/kg p.o., 7 days): −19%
- GLY, percent change with respect to HFD-fed hamster group (dose 10 mg/kg p.o., 7 days): −5%
- HDL/TC, percent change with respect to HFD-fed hamster group (dose 10 mg/kg p.o., 7 days): +12%
- TC, percent change with respect to HFD-fed hamster group (dose 10 mg/kg p.o., 7 days): −23* %
- TG, percent change with respect to HFD-fed hamster group (dose 10 mg/kg p.o., 7 days): −26*** %
- increase of HDL/TC [1]: 36%
- lowering of Low density lipoproteins (LDL) [1]: 49%
- lowering of glycerol (Gly) [1]: 51%
- lowering of total cholesterol (TC) [1]: 46%
- lowering of serum TG (dose 25 mg/kg body weight, oral, 7 days, listed as compound of formula (1), 25 mg/kg): 51%
- lowering of serum TG (dose 25 mg/kg body weight, oral, 7 days, listed as the compound, 25 mg/kg): up to 51%
- GLY, percent change with respect to HFD-fed hamster group (dose 25 mg/kg p.o., 7 days): −51*** %
- HDL/TC, percent change with respect to HFD-fed hamster group (dose 25 mg/kg p.o., 7 days): +36%
- LDL, percent change with respect to HFD-fed hamster group (dose 25 mg/kg p.o., 7 days): −49* %
- TC, percent change with respect to HFD-fed hamster group (dose 25 mg/kg p.o., 7 days): −46** %
- TG, percent change with respect to HFD-fed hamster group (dose 25 mg/kg p.o., 7 days): −51*** %
- increase of HDL/TC [2]: 54%
- lowering of Low density lipoproteins (LDL) [2]: 41%
- lowering of glycerol (Gly) [2]: 48%
- lowering of serum TG [2]: 46%
- lowering of total cholesterol (TC) [2]: 55%
- GLY, percent change with respect to HFD-fed hamster group (dose 50 mg/kg p.o., 7 days): −48** %
- HDL/TC, percent change with respect to HFD-fed hamster group (dose 50 mg/kg p.o., 7 days): +54%
- LDL, percent change with respect to HFD-fed hamster group (dose 50 mg/kg p.o., 7 days): −41* %
- TC, percent change with respect to HFD-fed hamster group (dose 50 mg/kg p.o., 7 days): −55*** %
- TG, percent change with respect to HFD-fed hamster group (dose 50 mg/kg p.o., 7 days): −46** %
- increase of HDL/TC [3]: 46%
- lowering of Low density lipoproteins (LDL) [3]: 65%
- lowering of glycerol (Gly) [3]: 43%
- lowering of serum TG [3]: 43%
- lowering of total cholesterol (TC) [3]: 54%
- GLY, percent change with respect to HFD-fed hamster group (dose 100 mg/kg p.o., 7 days): −43*** %
- HDL/TC, percent change with respect to HFD-fed hamster group (dose 100 mg/kg p.o., 7 days): +46%
- LDL, percent change with respect to HFD-fed hamster group (dose 100 mg/kg p.o., 7 days): −65*** %
- TC, percent change with respect to HFD-fed hamster group (dose 100 mg/kg p.o., 7 days): −54*** %
- TG, percent change with respect to HFD-fed hamster group (dose 100 mg/kg p.o., 7 days): −43** %
- increase of HDL/TC ratio (over the dose range 5 to 100 mg/kg body weight): up to 54%
- reduction of total cholesterol (TC) (over the dose range 5 to 100 mg/kg, listed as compound of formula (1)): up to 55%

SMILES: CC[C@H](C)C(=O)O[C@H]1C[C@@H](C)C=C2C=C[C@H](C)[C@H](CC[C@@H]3C[C@@H](O)CC(=O)O3)[C@H]21 [Lovastatin, reference compound]
- increase of HDL/TC [1]: 12%
- lowering of glycerol (Gly) [1]: 35%
- lowering of serum TG [1]: 29%
- lowering of total cholesterol (TC) [1]: 9%
- GLY, percent change with respect to HFD-fed hamster group (dose 25 mg/kg p.o., 7 days): −35%
- HDL/TC, percent change with respect to HFD-fed hamster group (dose 25 mg/kg p.o., 7 days): +12%
- TC, percent change with respect to HFD-fed hamster group (dose 25 mg/kg p.o., 7 days): −9%
- TG, percent change with respect to HFD-fed hamster group (dose 25 mg/kg p.o., 7 days): −29%

SMILES: CC(C)OC(=O)C(C)(C)Oc1ccc(C(=O)c2ccc(Cl)cc2)cc1 [fenofibrate, reference compound]
- increase of HDL-C/TC (dose 108 mg/kg body weight): 10%
- lowering of Gly (dose 108 mg/kg body weight): 36%
- lowering of TC (dose 108 mg/kg body weight): 18%
- lowering of TG (dose 108 mg/kg body weight): 42%
